Test results: patent US20220169632A1, “METHODS AND MATERIALS FOR INCREASING OR MAINTAINING NICOTINAMIDE MONONUCLEOTIDE ADENYLYL TRANSFERASE-2 (NMNAT2) POLYPEPTIDE LEVELS” (University of Pittsburgh - Of the Commonwealth System of …, priority 2019, published 2022)

Test system: NMNAT2
Test: NMNAT2-Hibit nano-luciferase activity in stably transfected U87MG cells, various concentrations, 24 hours
Type: cell-based
Details: U87MG cells stably transfected with NMNAT2-Hibit luc plasmid
Experimental: Selected compounds were tested in vitro. U87MG cells were stably transfected with NMNAT2-Hibit luc plasmid. Cells were treated with a test compound at various concentrations for 24 hours. Cells were then collected and assayed for nano-luciferase activity.

Row | SMILES | E: compound efficacy for NMNAT2 activation (concentration giving >25% increase in NMNAT2 luciferase activity)
1 | COc1ccccc1CNC(=O)C1CCc2c(c3ccccc3n2Cc2ccncc2)C1 (centres unmarked) [BC20282] | + (“+” >25% increase in NMNAT2 luciferase activity at >25 μM.)
2 | O=C(NCc1cccc(F)c1)C1CCc2c(c3ccccc3n2Cc2cccc(F)c2)C1 (centres unmarked) [BC20222] | + (“+” >25% increase in NMNAT2 luciferase activity at >25 μM.)
3 | Cc1ccc(C)c(Cn2cc3c4c(cccc42)C(=O)NCC3)c1 [BC20313] | + (“+” >25% increase in NMNAT2 luciferase activity at >25 μM.)
4 | Cc1ccc(CNC(=O)C2CCCc3c2c2ccccc2n3Cc2cccc(F)c2)o1 (centres unmarked) [BC20369] | ++ (“++” >25% increase in NMNAT2 luciferase activity at >1 μM ≤25 μM.)
5 | O=C(Nc1cccc(C(F)(F)F)c1)N1CCc2c(c3ccccc3n2Cc2cccc(F)c2)C1 [BC20362] | ++ (“++” >25% increase in NMNAT2 luciferase activity at >1 μM ≤25 μM.)
6 | COc1ccccc1CNC(=O)CCc1c(C(F)F)n(Cc2cc(C)ccc2C)c2ccccc12 [BC20397] | + (“+” >25% increase in NMNAT2 luciferase activity at >25 μM.)
7 | Cc1ccc(Cn2cc([C@H]3C[C@@H]3C(=O)NCCc3ccccc3)c3ccccc32)cc1 (racemic) [BC20300] | ++ (“++” >25% increase in NMNAT2 luciferase activity at >1 μM ≤25 μM.)
8 | COC(=O)c1ccc2c(c1)c(C)c(C)n2Cc1ccccc1C [BC20305] | + (“+” >25% increase in NMNAT2 luciferase activity at >25 μM.)
9 | Cc1c(C)n(Cc2ccccc2F)c2ccc(C(=O)N(CCCN3CCOCC3)Cc3ccco3)cc12 [BC20263] | ++ (“++” >25% increase in NMNAT2 luciferase activity at >1 μM ≤25 μM.)
10 | Cc1c(C)n(Cc2ccccc2F)c2ccc(C(=O)NCc3ccncc3)cc12 [BC20197] | ++ (“++” >25% increase in NMNAT2 luciferase activity at >1 μM ≤25 μM.)
11 | O=C(NCCc1ccccc1)C1CCCc2c1c1ccccc1n2Cc1cccc(F)c1 (centres unmarked) [BC20378] | ++ (“++” >25% increase in NMNAT2 luciferase activity at >1 μM ≤25 μM.)
12 | Cc1ccccc1CNC(=O)c1ccc2c(c1)c(C)c(C)n2Cc1ccccc1C [BC20203] | ++ (“++” >25% increase in NMNAT2 luciferase activity at >1 μM ≤25 μM.)
13 | COc1cccc(CNC(=O)Cn2c3c(c4ccccc42)CC(C(=O)NCc2ccco2)CC3)c1 (centres unmarked) [BC20290] | + (“+” >25% increase in NMNAT2 luciferase activity at >25 μM.)
14 | COc1cccc(CNC(=O)C2CCc3c(c4ccccc4n3Cc3ccncc3)C2)c1 (centres unmarked) [BC20283] | + (“+” >25% increase in NMNAT2 luciferase activity at >25 μM.)
15 | COc1cccc(CNC(=O)C2CCCc3c2c2ccccc2n3Cc2ccc(C)cc2)c1 (centres unmarked) [BC20387] | + (“+” >25% increase in NMNAT2 luciferase activity at >25 μM.)
16 | Cc1ccc(C)c(Cn2cc([C@H]3C[C@@H]3C(=O)NCc3ccccc3C)c3ccccc32)c1 (racemic) [BC20347] | ++ (“++” >25% increase in NMNAT2 luciferase activity at >1 μM ≤25 μM.)
17 | O=C(CCCc1cn(Cc2ccccc2F)c2ccccc12)NCc1ccccc1F [BC20210] | + (“+” >25% increase in NMNAT2 luciferase activity at >25 μM.)
18 | Cc1c(C)n(Cc2cccc(F)c2)c2ccc(C(=O)N(CCCN3CCOCC3)Cc3ccco3)cc12 [BC20264] | ++ (“++” >25% increase in NMNAT2 luciferase activity at >1 μM ≤25 μM.)
19 | Cc1cccc(Cn2cc(CCCC(=O)NCc3ccccc3C)c3ccccc32)c1 [BC20167] | +++ (“+++” >25% increase in NMNAT2 luciferase activity at ≤1 μM.)
20 | Cc1cccc(NC(=O)N2CCc3c(c4ccccc4n3Cc3ccncc3)C2)c1C [BC20336] | + (“+” >25% increase in NMNAT2 luciferase activity at >25 μM.)
21 | COc1ccc(CCN2CCc3cn(Cc4cccc(F)c4)c4cccc(c34)C2=O)cc1 [BC20278] | + (“+” >25% increase in NMNAT2 luciferase activity at >25 μM.)
22 | Cc1ccc(CNC(=O)Cn2c3c(c4ccccc42)CC(C(=O)NCc2ccco2)CC3)o1 (centres unmarked) [BC20285] | ++ (“++” >25% increase in NMNAT2 luciferase activity at >1 μM ≤25 μM.)
23 | COc1ccccc1CNC(=O)C1CCCc2c1c1ccccc1n2Cc1cccc(F)c1 (centres unmarked) [BC20374] | + (“+” >25% increase in NMNAT2 luciferase activity at >25 μM.)
24 | Cc1ccc(Cn2cc([C@H]3C[C@@H]3C(=O)NCc3cccnc3)c3ccccc32)cc1 (racemic) [BC20301] | + (“+” >25% increase in NMNAT2 luciferase activity at >25 μM.)

Row | SMILES | E: compound efficacy for NMNAT2 activation (concentration giving >25% increase in NMNAT2 luciferase activity)
25 | O=C(CCCc1cn(Cc2ccccc2F)c2ccccc12)N1CCN(C(=O)c2ccco2)CC1 [BC20129] | ++ (“++” >25% increase in NMNAT2 luciferase activity at >1 μM ≤25 μM.)
26 | Cc1c(C)n(Cc2ccccc2F)c2ccc(C(=O)NCc3cccc(F)c3)cc12 [BC20104] | ++ (“++” >25% increase in NMNAT2 luciferase activity at >1 μM ≤25 μM.)
27 | Cc1cccc(CN2CCc3cn(Cc4cccc(F)c4)c4cccc(c34)C2=O)c1 [BC20276] | + (“+” >25% increase in NMNAT2 luciferase activity at >25 μM.)
28 | Cc1cccc(NC(=O)N2CCc3c(c4ccccc4n3Cc3cccc(F)c3)C2)c1C [BC20312] | + (“+” >25% increase in NMNAT2 luciferase activity at >25 μM.)
29 | O=C(NCc1ccco1)C1CCCc2c1c1ccccc1n2Cc1cccc(F)c1 (centres unmarked) [BC20368] | ++ (“++” >25% increase in NMNAT2 luciferase activity at >1 μM ≤25 μM.)
30 | Cc1cccc(CNC(=O)c2ccc3c(c2)c(C)c(C)n3Cc2cccc(F)c2)c1 [BC20114] | ++ (“++” >25% increase in NMNAT2 luciferase activity at >1 μM ≤25 μM.)
31 | Cc1ccc(C)c(Cn2cc([C@H]3C[C@@H]3C(=O)NC(C)Cc3ccco3)c3ccccc32)c1 (mixture of isomers) [BC20363] | ++ (“++” >25% increase in NMNAT2 luciferase activity at >1 μM ≤25 μM.)
32 | CCCCN(CC)Cc1ccc(CNC(=O)CCc2c(C(F)F)n(Cc3cc(C)ccc3C)c3ccccc23)o1 [BC20406] | +++ (“+++” >25% increase in NMNAT2 luciferase activity at ≤1 μM.)
33 | Cc1c(C)n(Cc2cccc(F)c2)c2ccc(C(=O)NCc3ccncc3)cc12 [BC20119] | +++ (“+++” >25% increase in NMNAT2 luciferase activity at ≤1 μM.)
34 | Cc1c(C)n(Cc2ccccc2F)c2ccc(C(=O)NCC3CCCO3)cc12 (centres unmarked) [BC20194] | + (“+” >25% increase in NMNAT2 luciferase activity at >25 μM.)
35 | Cc1ccc(C)c(Cn2cc([C@H]3C[C@@H]3C(=O)NCc3ccc(C)o3)c3ccccc32)c1 (racemic) [BC20345] | + (“+” >25% increase in NMNAT2 luciferase activity at >25 μM.)
36 | Cc1cccc(NC(=O)CCCc2cn(Cc3ccccc3F)c3ccccc23)c1C [BC20134] | ++ (“++” >25% increase in NMNAT2 luciferase activity at >1 μM ≤25 μM.)
37 | COc1ccccc1CNC(=O)CCCc1cn(Cc2ccccc2F)c2ccccc12 [BC20127] | ++ (“++” >25% increase in NMNAT2 luciferase activity at >1 μM ≤25 μM.)
38 | Cc1ccc(C)c(Cn2c3c(c4ccccc42)CC(C(=O)NCCc2ccccc2)CC3)c1 (centres unmarked) [BC20218] | + (“+” >25% increase in NMNAT2 luciferase activity at >25 μM.)
39 | Cc1ccccc1Cn1cc(CCCC(=O)NCc2ccncc2)c2ccccc21 [BC20160] | ++ (“++” >25% increase in NMNAT2 luciferase activity at >1 μM ≤25 μM.)
40 | Cc1cccc(CNC(=O)CCCc2cn(Cc3ccccc3F)c3ccccc23)c1 [BC20126] | ++ (“++” >25% increase in NMNAT2 luciferase activity at >1 μM ≤25 μM.)
41 | Cc1c(C)n(Cc2cccc(F)c2)c2ccc(C(=O)NCC3CCCO3)cc12 (centres unmarked) [BC20110] | +++ (“+++” >25% increase in NMNAT2 luciferase activity at ≤1 μM.)
42 | Cc1ccc(C)c(Cn2cc3c4c(cccc42)C(=O)N(Cc2cccc(F)c2)CC3)c1 [BC20270] | + (“+” >25% increase in NMNAT2 luciferase activity at >25 μM.)
43 | O=C1CC(c2cn(Cc3cccc(F)c3)c3ccccc23)CCN1Cc1ccncc1 (centres unmarked) [BC20322] | ++ (“++” >25% increase in NMNAT2 luciferase activity at >1 μM ≤25 μM.)
44 | Cc1cccc(CN2CCc3cn(Cc4cc(C)ccc4C)c4cccc(c34)C2=O)c1 [BC20261] | + (“+” >25% increase in NMNAT2 luciferase activity at >25 μM.)
45 | Cc1ccc(Cn2cc(C3CCN(Cc4cccc(C)c4)C(=O)C3)c3ccccc32)cc1 (centres unmarked) [BC20233] | ++ (“++” >25% increase in NMNAT2 luciferase activity at >1 μM ≤25 μM.)
46 | O=C(c1ccc(Cl)cc1)c1cn(CC(=O)N2CCN(C(=O)c3ccco3)CC2)c2ccccc12 [BC20182] | + (“+” >25% increase in NMNAT2 luciferase activity at >25 μM.)
47 | Cc1ccccc1CN1CCC(c2cn(Cc3cccc(F)c3)c3ccccc23)CC1=O (centres unmarked) [BC20320] | + (“+” >25% increase in NMNAT2 luciferase activity at >25 μM.)
